Assays:
[1] = target: Serine/threonine-protein kinase N2 (Homo sapiens, UniProt Q16513); assay: Selectivity interaction (KinomeScan (DiscoverX)) EUB0001049a PKN2; details: at 1 µM
[2] = target: Ribosomal protein S6 kinase alpha-5 (Homo sapiens) (UniProt O75582); assay: Selectivity interaction (KinomeScan (DiscoverX)) EUB0001049a RPS6KA5; details: at 1 µM
[3] = target: Phosphatidylinositol 4,5-bisphosphate 3-kinase catalytic subunit gamma isoform (Homo sapiens) (UniProt P48736); assay: Selectivity interaction (Kinase panel (literature)) EUB0001199aCl PIK3CG; details: at 1 µM
[4] = target: Rho-associated protein kinase 2 (Homo sapiens, UniProt O75116); assay: Selectivity interaction (Kinase panel (literature)) EUB0001199aCl ROCK2; details: at 1 µM
[5] = target: Tyrosine-protein kinase Fer (Homo sapiens) (UniProt P16591); assay: Selectivity interaction (ActivX KiNativ screen (kinase selectivity in THP-1 cell lysates)) EUB0000639a FER; format: subcellular; details: lysate, at 0.04 µM
[6] = target: MAP kinase-activated protein kinase 2 (Homo sapiens, UniProt P49137); assay: Selectivity interaction (Ambit KINOMEscan and KiNATiv profiling in Jurkat cells) EUB0000090b MAPKAPK2; format: cell-based; details: at 1 µM
[7] = target: Serine/threonine-protein kinase MRCK gamma (Homo sapiens) (UniProt Q6DT37); details: at 10 µM
[8] = target: Serine/threonine-protein kinase mTOR (Homo sapiens, UniProt P42345); assay: Selectivity interaction (KinomeScan (DiscoverX)) EUB0000695a MTOR; details: at 100 nM
[9] = target: T1, Calcium/calmodulin-dependent protein kinase type IV (Homo sapiens) (UniProt Q16566); assay: Selectivity interaction (KinomeScan (DiscoverX)) EUB0000607a CAMK4; details: at 10 µM
T1 sequence (whole entry): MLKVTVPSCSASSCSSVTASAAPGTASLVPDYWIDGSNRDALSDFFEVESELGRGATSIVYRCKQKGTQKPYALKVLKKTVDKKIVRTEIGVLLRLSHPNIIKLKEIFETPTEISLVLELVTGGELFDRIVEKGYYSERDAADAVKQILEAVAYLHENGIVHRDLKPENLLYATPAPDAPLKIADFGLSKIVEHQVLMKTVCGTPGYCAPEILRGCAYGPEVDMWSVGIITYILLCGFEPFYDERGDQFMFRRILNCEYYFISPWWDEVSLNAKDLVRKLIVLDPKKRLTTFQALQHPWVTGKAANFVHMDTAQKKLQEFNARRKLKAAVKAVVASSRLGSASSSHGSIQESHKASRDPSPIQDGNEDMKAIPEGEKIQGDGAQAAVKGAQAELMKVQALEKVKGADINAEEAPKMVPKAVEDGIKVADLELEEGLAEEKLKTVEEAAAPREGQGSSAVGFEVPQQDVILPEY

[10] = target: T2, Serine/threonine-protein kinase D1 (Homo sapiens) (UniProt Q15139); assay: Selectivity interaction (Kinase panel (Z-LYTE Assay)) EUB0001632a PRKD1; details: at 10 µM
T2 sequence (whole entry): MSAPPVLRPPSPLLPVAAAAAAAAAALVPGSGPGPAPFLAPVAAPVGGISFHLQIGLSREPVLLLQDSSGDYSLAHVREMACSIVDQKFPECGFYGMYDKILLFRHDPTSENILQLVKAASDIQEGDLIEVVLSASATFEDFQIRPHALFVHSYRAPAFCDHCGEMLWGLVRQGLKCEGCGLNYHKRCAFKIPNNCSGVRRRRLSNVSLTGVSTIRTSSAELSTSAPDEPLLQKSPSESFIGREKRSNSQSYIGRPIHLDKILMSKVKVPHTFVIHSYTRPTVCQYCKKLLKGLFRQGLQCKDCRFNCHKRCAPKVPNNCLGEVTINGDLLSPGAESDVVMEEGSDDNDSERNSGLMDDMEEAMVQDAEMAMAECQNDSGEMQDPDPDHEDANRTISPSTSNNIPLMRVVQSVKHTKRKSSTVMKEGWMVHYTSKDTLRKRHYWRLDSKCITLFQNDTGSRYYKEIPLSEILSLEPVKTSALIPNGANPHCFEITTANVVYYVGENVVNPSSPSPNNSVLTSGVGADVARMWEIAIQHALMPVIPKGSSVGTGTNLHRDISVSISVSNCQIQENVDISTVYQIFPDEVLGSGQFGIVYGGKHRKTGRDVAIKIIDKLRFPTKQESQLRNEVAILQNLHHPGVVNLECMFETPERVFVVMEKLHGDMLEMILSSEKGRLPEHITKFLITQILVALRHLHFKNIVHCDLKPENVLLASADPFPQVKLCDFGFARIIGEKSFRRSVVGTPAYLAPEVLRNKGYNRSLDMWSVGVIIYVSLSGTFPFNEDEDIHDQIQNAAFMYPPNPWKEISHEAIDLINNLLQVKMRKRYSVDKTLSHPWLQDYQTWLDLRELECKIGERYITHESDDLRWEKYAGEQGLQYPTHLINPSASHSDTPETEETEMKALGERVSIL

[11] = target: ALK tyrosine kinase receptor (Homo sapiens, UniProt Q9UM73); assay: Selectivity interaction (Kinase panel (Z-LYTE Assay)) EUB0001632a ALK; details: at 10 µM
[12] = target: T3, Dual specificity tyrosine-phosphorylation-regulated kinase 4 (Homo sapiens) (UniProt Q9NR20); assay: Selectivity interaction (ProQinase) EUB0000171b DYRK4
T3 sequence (whole entry): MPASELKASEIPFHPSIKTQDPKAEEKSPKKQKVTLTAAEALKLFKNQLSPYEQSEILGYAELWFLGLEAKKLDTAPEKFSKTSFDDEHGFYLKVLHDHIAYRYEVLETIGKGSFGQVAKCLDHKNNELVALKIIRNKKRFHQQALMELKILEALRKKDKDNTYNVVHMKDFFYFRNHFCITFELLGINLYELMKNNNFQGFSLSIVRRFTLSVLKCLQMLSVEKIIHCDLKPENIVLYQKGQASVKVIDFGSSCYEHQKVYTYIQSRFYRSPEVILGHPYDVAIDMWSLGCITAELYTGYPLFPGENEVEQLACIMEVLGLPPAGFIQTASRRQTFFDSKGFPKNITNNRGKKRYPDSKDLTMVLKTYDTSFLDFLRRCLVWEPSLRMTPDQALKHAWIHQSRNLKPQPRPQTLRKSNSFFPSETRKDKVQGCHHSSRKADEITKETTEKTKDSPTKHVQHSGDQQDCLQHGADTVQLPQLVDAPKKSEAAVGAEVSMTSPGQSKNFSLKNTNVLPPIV

Chain of Rho-associated protein kinase 2 (O75116 whole entry, looked up): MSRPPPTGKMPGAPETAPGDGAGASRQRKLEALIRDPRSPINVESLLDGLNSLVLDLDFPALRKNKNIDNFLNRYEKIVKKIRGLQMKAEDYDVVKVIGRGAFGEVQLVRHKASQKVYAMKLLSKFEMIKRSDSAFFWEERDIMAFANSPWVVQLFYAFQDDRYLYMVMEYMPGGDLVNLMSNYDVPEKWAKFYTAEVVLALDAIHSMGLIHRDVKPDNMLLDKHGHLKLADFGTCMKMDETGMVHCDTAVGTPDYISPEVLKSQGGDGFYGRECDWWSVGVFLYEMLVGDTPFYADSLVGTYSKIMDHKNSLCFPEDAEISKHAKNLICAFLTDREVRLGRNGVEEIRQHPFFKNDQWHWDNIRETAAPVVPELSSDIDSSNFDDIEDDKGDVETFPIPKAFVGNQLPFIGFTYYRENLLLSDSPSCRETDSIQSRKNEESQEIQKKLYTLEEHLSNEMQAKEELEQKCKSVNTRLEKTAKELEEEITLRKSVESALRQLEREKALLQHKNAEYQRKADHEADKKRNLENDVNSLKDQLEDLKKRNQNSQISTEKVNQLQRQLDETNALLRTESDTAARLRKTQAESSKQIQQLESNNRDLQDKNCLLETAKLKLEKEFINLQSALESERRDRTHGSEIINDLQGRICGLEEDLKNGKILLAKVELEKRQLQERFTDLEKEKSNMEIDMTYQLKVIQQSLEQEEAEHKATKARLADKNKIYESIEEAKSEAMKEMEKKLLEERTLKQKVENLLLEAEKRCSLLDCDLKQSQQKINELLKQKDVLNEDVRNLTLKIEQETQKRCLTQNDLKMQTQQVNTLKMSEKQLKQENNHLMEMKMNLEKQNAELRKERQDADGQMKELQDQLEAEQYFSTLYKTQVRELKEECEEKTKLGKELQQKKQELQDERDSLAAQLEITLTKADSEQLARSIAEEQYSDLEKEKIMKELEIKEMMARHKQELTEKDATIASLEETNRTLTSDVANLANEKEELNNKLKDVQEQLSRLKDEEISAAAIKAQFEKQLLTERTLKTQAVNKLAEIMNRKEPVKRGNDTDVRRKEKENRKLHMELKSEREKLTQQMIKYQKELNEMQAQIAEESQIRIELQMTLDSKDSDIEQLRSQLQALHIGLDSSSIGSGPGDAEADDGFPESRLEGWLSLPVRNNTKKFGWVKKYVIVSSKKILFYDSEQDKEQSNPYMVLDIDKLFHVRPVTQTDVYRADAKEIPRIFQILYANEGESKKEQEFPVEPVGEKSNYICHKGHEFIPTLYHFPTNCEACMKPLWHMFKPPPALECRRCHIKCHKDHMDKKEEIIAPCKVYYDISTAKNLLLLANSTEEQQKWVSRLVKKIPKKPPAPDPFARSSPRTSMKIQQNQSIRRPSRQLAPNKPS
Chain of Ribosomal protein S6 kinase alpha-5 (Homo sapiens) (O75582 whole entry, looked up, canonical isoform): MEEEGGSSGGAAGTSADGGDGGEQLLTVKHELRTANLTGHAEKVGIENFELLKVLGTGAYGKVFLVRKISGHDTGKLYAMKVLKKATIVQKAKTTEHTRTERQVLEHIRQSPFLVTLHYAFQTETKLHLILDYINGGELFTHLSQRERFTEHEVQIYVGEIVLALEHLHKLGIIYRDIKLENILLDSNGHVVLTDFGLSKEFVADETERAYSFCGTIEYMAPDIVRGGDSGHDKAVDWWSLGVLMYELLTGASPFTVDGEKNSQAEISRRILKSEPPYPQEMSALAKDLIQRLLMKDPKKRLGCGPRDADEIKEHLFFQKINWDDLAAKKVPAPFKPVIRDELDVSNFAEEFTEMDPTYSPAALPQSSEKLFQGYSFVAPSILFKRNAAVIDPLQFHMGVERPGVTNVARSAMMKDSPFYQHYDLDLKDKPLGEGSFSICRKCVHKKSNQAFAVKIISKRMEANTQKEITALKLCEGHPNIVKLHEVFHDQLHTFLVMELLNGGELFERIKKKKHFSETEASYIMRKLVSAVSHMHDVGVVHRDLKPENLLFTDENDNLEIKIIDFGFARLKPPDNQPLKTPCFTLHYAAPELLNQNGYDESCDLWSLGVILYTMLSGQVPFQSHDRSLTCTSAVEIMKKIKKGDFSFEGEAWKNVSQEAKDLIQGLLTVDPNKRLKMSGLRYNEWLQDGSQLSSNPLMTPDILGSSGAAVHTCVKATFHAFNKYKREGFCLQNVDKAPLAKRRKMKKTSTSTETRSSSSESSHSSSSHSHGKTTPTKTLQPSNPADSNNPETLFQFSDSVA
Chain of Serine/threonine-protein kinase MRCK gamma (Homo sapiens) (Q6DT37 whole entry): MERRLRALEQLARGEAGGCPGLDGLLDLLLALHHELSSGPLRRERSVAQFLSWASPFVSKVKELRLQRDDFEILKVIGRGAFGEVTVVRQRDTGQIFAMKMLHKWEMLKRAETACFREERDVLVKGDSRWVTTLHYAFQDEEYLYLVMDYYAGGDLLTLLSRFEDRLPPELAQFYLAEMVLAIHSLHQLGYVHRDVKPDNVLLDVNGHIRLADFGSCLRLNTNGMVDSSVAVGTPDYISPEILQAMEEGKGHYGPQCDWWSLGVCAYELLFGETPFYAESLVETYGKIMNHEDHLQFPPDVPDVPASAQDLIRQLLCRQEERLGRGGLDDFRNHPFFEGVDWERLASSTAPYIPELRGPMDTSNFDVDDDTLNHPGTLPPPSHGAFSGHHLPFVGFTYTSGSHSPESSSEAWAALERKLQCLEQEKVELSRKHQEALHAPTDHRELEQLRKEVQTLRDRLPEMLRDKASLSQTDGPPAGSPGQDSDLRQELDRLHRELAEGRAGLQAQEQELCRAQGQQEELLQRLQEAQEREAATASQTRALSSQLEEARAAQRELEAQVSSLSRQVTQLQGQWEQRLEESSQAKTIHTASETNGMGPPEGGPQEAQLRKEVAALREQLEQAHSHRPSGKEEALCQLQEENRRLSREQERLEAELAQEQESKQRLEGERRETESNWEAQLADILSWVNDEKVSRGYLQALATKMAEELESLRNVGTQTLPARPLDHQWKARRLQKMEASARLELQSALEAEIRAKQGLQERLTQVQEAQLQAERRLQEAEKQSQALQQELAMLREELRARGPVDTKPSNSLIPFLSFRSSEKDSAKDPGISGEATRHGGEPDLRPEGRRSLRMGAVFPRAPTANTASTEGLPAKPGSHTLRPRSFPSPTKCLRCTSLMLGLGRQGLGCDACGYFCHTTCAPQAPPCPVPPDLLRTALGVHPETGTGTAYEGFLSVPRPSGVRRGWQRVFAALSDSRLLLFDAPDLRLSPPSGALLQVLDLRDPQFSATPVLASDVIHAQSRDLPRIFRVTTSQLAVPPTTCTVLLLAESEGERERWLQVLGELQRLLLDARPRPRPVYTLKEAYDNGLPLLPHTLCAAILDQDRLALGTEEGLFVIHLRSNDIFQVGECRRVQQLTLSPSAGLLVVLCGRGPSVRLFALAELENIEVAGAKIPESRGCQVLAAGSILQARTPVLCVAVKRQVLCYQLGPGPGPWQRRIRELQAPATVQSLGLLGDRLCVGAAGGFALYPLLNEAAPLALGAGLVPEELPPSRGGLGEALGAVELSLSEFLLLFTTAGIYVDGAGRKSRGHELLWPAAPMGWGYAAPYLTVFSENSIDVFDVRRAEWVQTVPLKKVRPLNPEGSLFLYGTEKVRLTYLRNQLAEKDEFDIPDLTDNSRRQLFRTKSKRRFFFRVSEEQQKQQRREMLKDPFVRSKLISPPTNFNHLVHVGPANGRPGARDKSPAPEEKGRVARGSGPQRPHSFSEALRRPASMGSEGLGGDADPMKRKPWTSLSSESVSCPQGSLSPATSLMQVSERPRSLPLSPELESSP
Chain of Phosphatidylinositol 4,5-bisphosphate 3-kinase catalytic subunit gamma isoform (Homo sapiens) (P48736 whole entry, looked up, canonical isoform): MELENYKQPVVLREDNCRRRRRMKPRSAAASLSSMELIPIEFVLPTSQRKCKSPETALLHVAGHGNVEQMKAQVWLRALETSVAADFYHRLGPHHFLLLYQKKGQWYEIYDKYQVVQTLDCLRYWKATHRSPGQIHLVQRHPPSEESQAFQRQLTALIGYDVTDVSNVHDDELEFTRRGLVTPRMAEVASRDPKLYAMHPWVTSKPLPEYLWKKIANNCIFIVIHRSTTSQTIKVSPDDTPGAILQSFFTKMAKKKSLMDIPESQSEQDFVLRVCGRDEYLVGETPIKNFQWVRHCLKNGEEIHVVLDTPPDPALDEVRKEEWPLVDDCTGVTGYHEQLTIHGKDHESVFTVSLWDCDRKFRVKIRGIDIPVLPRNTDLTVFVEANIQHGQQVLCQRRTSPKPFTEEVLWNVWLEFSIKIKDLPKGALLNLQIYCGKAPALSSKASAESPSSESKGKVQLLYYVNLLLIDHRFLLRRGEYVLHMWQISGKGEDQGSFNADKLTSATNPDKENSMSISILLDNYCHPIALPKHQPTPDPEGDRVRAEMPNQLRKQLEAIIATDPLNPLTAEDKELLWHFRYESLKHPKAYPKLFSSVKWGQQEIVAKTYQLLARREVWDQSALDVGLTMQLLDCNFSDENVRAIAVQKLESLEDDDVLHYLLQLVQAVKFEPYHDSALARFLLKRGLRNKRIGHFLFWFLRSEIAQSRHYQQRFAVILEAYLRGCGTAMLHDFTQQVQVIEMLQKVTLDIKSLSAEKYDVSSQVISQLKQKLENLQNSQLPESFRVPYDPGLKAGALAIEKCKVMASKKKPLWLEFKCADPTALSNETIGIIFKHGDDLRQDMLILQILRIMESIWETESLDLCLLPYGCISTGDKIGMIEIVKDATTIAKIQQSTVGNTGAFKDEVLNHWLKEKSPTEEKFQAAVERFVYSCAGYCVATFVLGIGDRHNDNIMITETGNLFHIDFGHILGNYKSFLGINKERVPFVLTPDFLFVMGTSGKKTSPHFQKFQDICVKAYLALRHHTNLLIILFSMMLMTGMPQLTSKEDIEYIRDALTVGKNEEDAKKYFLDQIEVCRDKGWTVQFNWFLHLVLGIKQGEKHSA

COc1cc(Nc2nc(C)cc(-c3cnn4nc(OC)ccc34)n2)cc(C(F)(F)F)c1
% of control [1]: 90%
% of control [2]: 95%

CN1Cc2nccc(-c3cn(C)nc3-c3ccc(F)cc3)c2C1=O
% of inhibition [3]: -10%
% of inhibition [4]: 6%

CC[C@@H]1[C@H](F)C(=O)N[C@@H]1COc1nccc2cc(C(N)=O)c(OC)cc12 [ZIMLOVISERTIB]
% of inhibition [5]: -11.5%

CN(C)C/C=C/C(=O)Nc1ccc(C(=O)N2CCCC(Nc3ncc(Cl)c(-c4c[nH]c5ccccc45)n3)C2)cc1 (stereo not drawn)
% of control [6]: 97%

Cc1cc([C@@H](C)Nc2ccccc2C(=O)O)c2nc(N3CCOCC3)cc(=O)n2c1 [AZD-6482]
% of control [7]: 100%

Cc1cc(F)c(C(=O)Nc2cccc(-c3nncn3C(C)C)n2)cc1-n1cnc(C2CC2)c1
% of control [8]: 100%

CNC(=O)Nc1ccc(-c2nc(N3CC4CCC(C3)O4)c3cnn(C4CCC5(CC4)OCCO5)c3n2)cc1
% of control [9]: 100%

Cn1cc(-n2cnc3c(NCc4nc5cc(Cl)c(Cl)cc5[nH]4)nc(N4CCOCC4)nc32)cn1
% of control [10]: 3.91%
% of control [11]: -0.105%

C=CC(=O)Nc1cccc(C(=O)Nc2ccc(Nc3cc(-c4[nH]c(SC)nc4C)ccn3)cc2)c1
% of control ([12]; at 1 µM): 90%
% of control ([12]; at 5 µM): 84%

— ChEMBL document CHEMBL5465560, “Selectivity Literature for EUbOPEN Chemogenomic Library” (2024)
